The target in assay [1] is T1, MINK (Homo sapiens, UniProt Q8N4C8).
T1 construct: purchased Eurofins DiscoverX KINOMEscan
The assay is described as follows: KINOMEscan 1 μM, MINK. In kind it is binding. The conditions noted are these: 1000 nM; Entrez MINK1; read-out: Percent Control. From the text:
(§1) Supplement cells-12-00287-s001.zip/File S2. KinomeScan data for the CAMKK2 probe and negative control.xlsx, sheet "SGC-CAMKK2-1" | column: Percent Control

For assay [2], the target named is T2, ERK3 (Homo sapiens, UniProt Q16659).
T2 construct: purchased Eurofins DiscoverX KINOMEscan
The assay is described as follows: KINOMEscan 1 μM, ERK3. Type of assay: binding. To be noted: 1000 nM; Entrez MAPK6; read-out: Percent Control.
From the text: as §1

Assay [3] concerns the target T3, EPHA7 (Homo sapiens, UniProt Q15375).
T3 construct: purchased Eurofins DiscoverX KINOMEscan
The assay is described as follows: KINOMEscan 1 μM, EPHA7. In kind it is binding. To be noted: 1000 nM; Entrez EPHA7; read-out: Percent Control.
From the text: as §1

The target in assay [4] is T4, CAMK1G (Homo sapiens, UniProt Q96NX5).
T4 construct: purchased Eurofins DiscoverX KINOMEscan
The assay is described as follows: KINOMEscan 1 μM, CAMK1G. Type of assay: binding. To be noted: 1000 nM; Entrez CAMK1G; read-out: Percent Control.
From the text: as §1

The target of assay [5] is T5, BRSK2 (Homo sapiens, UniProt Q8IWQ3).
T5 construct: purchased Eurofins DiscoverX KINOMEscan
The assay is described as follows: KINOMEscan 1 μM, BRSK2. In kind it is binding. To be noted: 1000 nM; Entrez BRSK2; read-out: Percent Control.
From the text: as §1

For assay [6], the target named is T6, WNK3 (Homo sapiens, UniProt Q9BYP7).
T6 construct: purchased Eurofins DiscoverX KINOMEscan
The assay is described as follows: KINOMEscan 1 μM, WNK3. Type of assay: binding. To be noted: 1000 nM; Entrez WNK3; read-out: Percent Control.
From the text: as §1

Assay [7] deals with T7, ABL1(F317L)-phosphorylated (Homo sapiens, UniProt P00519, F317L).
T7 construct: purchased Eurofins DiscoverX KINOMEscan
The assay is described as follows: KINOMEscan 1 μM, ABL1(F317L)-phosphorylated. In kind it is binding. The conditions noted are these: 1000 nM; Entrez ABL1; read-out: Percent Control.
From the text: as §1

For assay [8], the target named is T8, FGFR3(G697C) (Homo sapiens, UniProt P22607, G697C).
T8 construct: purchased Eurofins DiscoverX KINOMEscan
The assay is described as follows: KINOMEscan 1 μM, FGFR3(G697C). Type of assay: binding. The conditions noted are these: 1000 nM; Entrez FGFR3; read-out: Percent Control.
From the text: as §1

The target in assay [9] is T9, FLT3(R834Q) (Homo sapiens, UniProt P36888, R834Q).
T9 construct: purchased Eurofins DiscoverX KINOMEscan
The assay is described as follows: KINOMEscan 1 μM, FLT3(R834Q). The conditions noted are these: 1000 nM; Entrez FLT3; read-out: Percent Control. Type of assay: binding.
From the text: as §1

Assay [10] has as its target T10, CDKL3 (Homo sapiens, UniProt Q8IVW4).
T10 construct: purchased Eurofins DiscoverX KINOMEscan
The assay is described as follows: KINOMEscan 1 μM, CDKL3. To be noted: 1000 nM; Entrez CDKL3; read-out: Percent Control. In kind it is binding.
From the text: as §1

Assay [11] addresses T11, BRSK1 (Homo sapiens, UniProt Q8TDC3).
T11 construct: purchased Eurofins DiscoverX KINOMEscan
The assay is described as follows: KINOMEscan 1 μM, BRSK1. Type of assay: binding. The conditions noted are these: 1000 nM; Entrez BRSK1; read-out: Percent Control.
From the text: as §1

Assay [12] addresses T12, TNK1 (Homo sapiens, UniProt Q13470).
T12 construct: purchased Eurofins DiscoverX KINOMEscan
The assay is described as follows: DiscoverX KINOMEscan binding assay at 1 μM, TNK1. To be noted: Compound Concentration 1000 nM, read-out: Percent Control.
From the text: as §1

Assay [13] has as its target T13, RPS6KA5(Kin.Dom.1-N-terminal) (Homo sapiens, UniProt O75582).
T13 construct: RPS6KA5(Kin.Dom.1-N-terminal); purchased Eurofins DiscoverX KINOMEscan
The assay is described as follows: KINOMEscan 1 μM, RPS6KA5(Kin.Dom.1-N-terminal). Type of assay: binding. The conditions noted are these: 1000 nM; Entrez RPS6KA5; read-out: Percent Control.
From the text: as §1

Assay [14] deals with T14, ROCK2 (Homo sapiens, UniProt O75116).
T14 construct: purchased Eurofins DiscoverX KINOMEscan
The assay is described as follows: DiscoverX KINOMEscan binding assay at 1 μM, ROCK2. The conditions noted are these: Compound Concentration 1000 nM, read-out: Percent Control.
From the text: as §1

Assay [15] deals with T15, MRCKA (Homo sapiens, UniProt Q5VT25).
T15 construct: purchased Eurofins DiscoverX KINOMEscan
The assay is described as follows: KINOMEscan 1 μM, MRCKA. The conditions noted are these: 1000 nM; Entrez CDC42BPA; read-out: Percent Control. In kind it is binding.
From the text: as §1

The target in assay [16] is T16, FYN (Homo sapiens, UniProt P06241).
T16 construct: purchased Eurofins DiscoverX KINOMEscan
The assay is described as follows: KINOMEscan 1 μM, FYN. In kind it is binding. The conditions noted are these: 1000 nM; Entrez FYN; read-out: Percent Control.
From the text: as §1

Assay [17] addresses T17, CSNK1E (Homo sapiens, UniProt P49674).
T17 construct: purchased Eurofins DiscoverX KINOMEscan
The assay is described as follows: KINOMEscan 1 μM, CSNK1E. Type of assay: binding. To be noted: 1000 nM; Entrez CSNK1E; read-out: Percent Control.
From the text: as §1

The target in assay [18] is T18, YES (Homo sapiens, UniProt P07947).
T18 construct: purchased Eurofins DiscoverX KINOMEscan
The assay is described as follows: DiscoverX KINOMEscan binding assay at 1 μM, YES. The conditions noted are these: YES (YES1); Compound Concentration 1000 nM; read-out: Percent Control.
From the text: as §1

For assay [19], the target named is T19, DYRK1B (Homo sapiens, UniProt Q9Y463).
T19 construct: purchased Eurofins DiscoverX KINOMEscan
The assay is described as follows: KINOMEscan 1 μM, DYRK1B. In kind it is binding. To be noted: 1000 nM; Entrez DYRK1B; read-out: Percent Control.
From the text: as §1

The target of assay [20] is T20, HPK1 (Homo sapiens, UniProt Q92918).
T20 construct: purchased Eurofins DiscoverX KINOMEscan
The assay is described as follows: KINOMEscan 1 μM, HPK1. In kind it is binding. To be noted: 1000 nM; Entrez MAP4K1; read-out: Percent Control.
From the text: as §1

Assay [21] deals with T21, SYK (Homo sapiens, UniProt P43405).
T21 construct: purchased Eurofins DiscoverX KINOMEscan
The assay is described as follows: KINOMEscan binding assay at 1 μM, SYK. The conditions noted are these: Compound Concentration 1000 nM; read-out: Percent Control. An excerpt: (§2) Supplement cells-12-00287-s001.zip/File S2. KinomeScan data for the CAMKK2 probe and negative control.xlsx, sheet "SGC-CAMKK2-1N" | column: Percent Control

Assay [22] has as its target T22, ABL1(T315I)-phosphorylated (Homo sapiens, UniProt P00519, T315I).
T22 construct: purchased Eurofins DiscoverX KINOMEscan
The assay is described as follows: KINOMEscan at 1 μM, ABL1(T315I)-phosphorylated. In kind it is binding. The conditions noted are these: 1000 nM, read-out: Percent Control.
From the text: as §2

Assay [23] concerns the target T23, PIK3CA(H1047L) (Homo sapiens, UniProt P42336, H1047L).
T23 construct: purchased Eurofins DiscoverX KINOMEscan
The assay is described as follows: KINOMEscan at 1 μM, PIK3CA(H1047L). Type of assay: binding. To be noted: 1000 nM, read-out: Percent Control.
From the text: as §2

Assay [24] concerns FLT3(ITD,D835V). The assay is described as follows: KINOMEscan binding assay at 1 μM, FLT3(ITD,D835V). More on the design: species or system human. To be noted: Compound Concentration 1000 nM.
From the text: as §2

The target of assay [25] is T24, CDC2L1 (Homo sapiens, UniProt P21127).
T24 construct: purchased Eurofins DiscoverX KINOMEscan
The assay is described as follows: KINOMEscan at 1 μM, CDC2L1. Type of assay: binding. To be noted: 1000 nM, read-out: Percent Control.
From the text: as §2

For assay [26], the target named is T25, CSNK1G2 (Homo sapiens, UniProt P78368).
T25 construct: purchased Eurofins DiscoverX KINOMEscan
The assay is described as follows: KINOMEscan at 1 μM, CSNK1G2. The conditions noted are these: 1000 nM, read-out: Percent Control. Type of assay: binding.
From the text: as §2

Assay [27] concerns the target T26, NEK4 (Homo sapiens, UniProt P51957).
T26 construct: purchased Eurofins DiscoverX KINOMEscan
The assay is described as follows: KINOMEscan at 1 μM, NEK4. Type of assay: binding. The conditions noted are these: 1000 nM, read-out: Percent Control.
From the text: as §2

Assay [28] has as its target T27, RIPK4 (Homo sapiens, UniProt P57078).
T27 construct: purchased Eurofins DiscoverX KINOMEscan
The assay is described as follows: KINOMEscan at 1 μM, RIPK4. Type of assay: binding. The conditions noted are these: 1000 nM, read-out: Percent Control.
From the text: as §2

The target in assay [29] is T28, BMPR1B (Homo sapiens, UniProt O00238).
T28 construct: purchased Eurofins DiscoverX KINOMEscan
The assay is described as follows: KINOMEscan at 1 μM, BMPR1B. Type of assay: binding. To be noted: 1000 nM, read-out: Percent Control.
From the text: as §2

Assay [30] concerns the target T29, TLK2 (Homo sapiens, UniProt Q86UE8).
T29 construct: purchased Eurofins DiscoverX KINOMEscan
The assay is described as follows: KINOMEscan at 1 μM, TLK2. Type of assay: binding. The conditions noted are these: 1000 nM, read-out: Percent Control.
From the text: as §2

The target of assay [31] is T30, HUNK (Homo sapiens, UniProt P57058).
T30 construct: purchased Eurofins DiscoverX KINOMEscan
The assay is described as follows: KINOMEscan at 1 μM, HUNK. Type of assay: binding. To be noted: 1000 nM, read-out: Percent Control.
From the text: as §2

T25 sequence (P78368 whole entry): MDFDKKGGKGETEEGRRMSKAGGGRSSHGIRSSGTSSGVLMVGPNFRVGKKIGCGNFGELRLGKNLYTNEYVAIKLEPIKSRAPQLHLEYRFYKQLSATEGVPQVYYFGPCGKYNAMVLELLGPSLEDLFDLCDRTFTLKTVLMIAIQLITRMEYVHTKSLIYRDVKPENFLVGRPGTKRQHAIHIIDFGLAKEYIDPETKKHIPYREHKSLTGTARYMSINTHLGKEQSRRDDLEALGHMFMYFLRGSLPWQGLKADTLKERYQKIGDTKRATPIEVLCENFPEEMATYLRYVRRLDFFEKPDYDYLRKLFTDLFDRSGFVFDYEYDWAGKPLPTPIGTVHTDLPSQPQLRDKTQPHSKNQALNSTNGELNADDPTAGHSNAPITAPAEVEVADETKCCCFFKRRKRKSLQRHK
T18 sequence (P07947 whole entry): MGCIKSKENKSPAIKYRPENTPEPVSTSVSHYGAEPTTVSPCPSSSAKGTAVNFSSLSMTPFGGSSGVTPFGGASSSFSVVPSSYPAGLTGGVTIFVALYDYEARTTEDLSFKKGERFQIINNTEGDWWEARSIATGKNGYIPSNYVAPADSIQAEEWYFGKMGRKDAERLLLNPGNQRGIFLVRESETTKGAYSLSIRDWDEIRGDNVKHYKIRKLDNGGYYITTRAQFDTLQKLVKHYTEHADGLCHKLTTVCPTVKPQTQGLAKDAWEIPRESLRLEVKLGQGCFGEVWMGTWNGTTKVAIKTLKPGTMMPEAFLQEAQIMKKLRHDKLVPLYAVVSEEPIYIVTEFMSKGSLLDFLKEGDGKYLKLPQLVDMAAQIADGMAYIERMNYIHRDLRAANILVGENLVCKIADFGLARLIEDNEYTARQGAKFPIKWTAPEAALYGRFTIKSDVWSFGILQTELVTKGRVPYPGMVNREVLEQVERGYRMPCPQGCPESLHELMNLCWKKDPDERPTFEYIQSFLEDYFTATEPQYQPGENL
T30 sequence (P57058 whole entry): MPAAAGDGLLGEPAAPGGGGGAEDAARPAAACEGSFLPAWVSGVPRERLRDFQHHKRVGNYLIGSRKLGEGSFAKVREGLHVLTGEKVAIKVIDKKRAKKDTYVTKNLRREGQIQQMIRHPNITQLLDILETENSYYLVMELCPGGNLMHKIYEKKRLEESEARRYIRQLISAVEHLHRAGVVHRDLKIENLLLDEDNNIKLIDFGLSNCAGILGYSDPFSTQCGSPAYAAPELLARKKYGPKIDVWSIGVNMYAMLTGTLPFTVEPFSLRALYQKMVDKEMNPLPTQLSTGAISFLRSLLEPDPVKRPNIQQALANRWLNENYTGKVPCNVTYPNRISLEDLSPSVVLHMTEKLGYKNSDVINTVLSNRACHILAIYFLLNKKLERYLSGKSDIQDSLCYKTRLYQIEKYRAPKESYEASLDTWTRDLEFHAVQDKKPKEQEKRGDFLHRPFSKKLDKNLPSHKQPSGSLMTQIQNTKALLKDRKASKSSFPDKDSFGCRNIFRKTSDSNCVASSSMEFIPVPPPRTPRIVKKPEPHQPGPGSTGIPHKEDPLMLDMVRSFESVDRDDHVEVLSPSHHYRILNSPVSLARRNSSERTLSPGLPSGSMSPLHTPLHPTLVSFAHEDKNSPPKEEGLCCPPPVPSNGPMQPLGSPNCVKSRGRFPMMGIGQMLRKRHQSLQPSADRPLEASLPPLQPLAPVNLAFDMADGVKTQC
T8 sequence (P22607 23-806 G697C): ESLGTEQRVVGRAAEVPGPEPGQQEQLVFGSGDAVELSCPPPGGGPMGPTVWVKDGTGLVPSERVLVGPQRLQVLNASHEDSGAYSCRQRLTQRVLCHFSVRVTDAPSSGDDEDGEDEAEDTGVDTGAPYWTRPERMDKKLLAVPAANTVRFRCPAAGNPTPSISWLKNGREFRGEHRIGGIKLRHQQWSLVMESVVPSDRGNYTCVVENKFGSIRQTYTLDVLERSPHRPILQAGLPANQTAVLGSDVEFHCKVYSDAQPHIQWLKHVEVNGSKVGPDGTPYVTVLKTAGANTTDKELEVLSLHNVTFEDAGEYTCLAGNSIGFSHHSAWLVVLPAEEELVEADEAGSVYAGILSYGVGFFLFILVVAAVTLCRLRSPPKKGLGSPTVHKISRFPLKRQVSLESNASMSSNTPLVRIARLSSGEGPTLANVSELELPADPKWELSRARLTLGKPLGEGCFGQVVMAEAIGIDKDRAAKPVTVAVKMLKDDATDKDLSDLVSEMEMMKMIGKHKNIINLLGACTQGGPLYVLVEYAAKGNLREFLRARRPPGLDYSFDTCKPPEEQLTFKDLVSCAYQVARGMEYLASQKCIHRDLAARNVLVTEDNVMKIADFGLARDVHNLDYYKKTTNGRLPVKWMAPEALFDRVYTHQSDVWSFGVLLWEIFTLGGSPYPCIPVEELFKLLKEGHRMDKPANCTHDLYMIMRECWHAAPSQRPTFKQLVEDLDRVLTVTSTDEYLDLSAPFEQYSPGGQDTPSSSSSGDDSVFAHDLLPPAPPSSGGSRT
T10 sequence (Q8IVW4 whole entry): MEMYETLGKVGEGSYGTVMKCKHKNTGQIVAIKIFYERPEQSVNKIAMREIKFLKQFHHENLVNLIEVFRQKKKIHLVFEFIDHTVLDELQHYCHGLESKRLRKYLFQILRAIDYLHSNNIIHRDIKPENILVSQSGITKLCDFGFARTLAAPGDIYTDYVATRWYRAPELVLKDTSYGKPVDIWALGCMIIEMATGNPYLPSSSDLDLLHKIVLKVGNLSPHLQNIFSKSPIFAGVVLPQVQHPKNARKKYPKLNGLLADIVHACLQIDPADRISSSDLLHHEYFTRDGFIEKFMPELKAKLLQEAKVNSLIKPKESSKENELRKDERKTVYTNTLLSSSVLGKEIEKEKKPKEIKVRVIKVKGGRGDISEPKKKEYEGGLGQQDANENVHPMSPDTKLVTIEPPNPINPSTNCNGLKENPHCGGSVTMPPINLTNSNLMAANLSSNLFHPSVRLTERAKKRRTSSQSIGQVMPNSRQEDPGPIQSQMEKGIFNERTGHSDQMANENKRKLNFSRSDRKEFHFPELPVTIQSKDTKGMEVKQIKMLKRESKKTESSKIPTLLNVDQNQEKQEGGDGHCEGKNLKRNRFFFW
T23 sequence (P42336 whole entry H1047L): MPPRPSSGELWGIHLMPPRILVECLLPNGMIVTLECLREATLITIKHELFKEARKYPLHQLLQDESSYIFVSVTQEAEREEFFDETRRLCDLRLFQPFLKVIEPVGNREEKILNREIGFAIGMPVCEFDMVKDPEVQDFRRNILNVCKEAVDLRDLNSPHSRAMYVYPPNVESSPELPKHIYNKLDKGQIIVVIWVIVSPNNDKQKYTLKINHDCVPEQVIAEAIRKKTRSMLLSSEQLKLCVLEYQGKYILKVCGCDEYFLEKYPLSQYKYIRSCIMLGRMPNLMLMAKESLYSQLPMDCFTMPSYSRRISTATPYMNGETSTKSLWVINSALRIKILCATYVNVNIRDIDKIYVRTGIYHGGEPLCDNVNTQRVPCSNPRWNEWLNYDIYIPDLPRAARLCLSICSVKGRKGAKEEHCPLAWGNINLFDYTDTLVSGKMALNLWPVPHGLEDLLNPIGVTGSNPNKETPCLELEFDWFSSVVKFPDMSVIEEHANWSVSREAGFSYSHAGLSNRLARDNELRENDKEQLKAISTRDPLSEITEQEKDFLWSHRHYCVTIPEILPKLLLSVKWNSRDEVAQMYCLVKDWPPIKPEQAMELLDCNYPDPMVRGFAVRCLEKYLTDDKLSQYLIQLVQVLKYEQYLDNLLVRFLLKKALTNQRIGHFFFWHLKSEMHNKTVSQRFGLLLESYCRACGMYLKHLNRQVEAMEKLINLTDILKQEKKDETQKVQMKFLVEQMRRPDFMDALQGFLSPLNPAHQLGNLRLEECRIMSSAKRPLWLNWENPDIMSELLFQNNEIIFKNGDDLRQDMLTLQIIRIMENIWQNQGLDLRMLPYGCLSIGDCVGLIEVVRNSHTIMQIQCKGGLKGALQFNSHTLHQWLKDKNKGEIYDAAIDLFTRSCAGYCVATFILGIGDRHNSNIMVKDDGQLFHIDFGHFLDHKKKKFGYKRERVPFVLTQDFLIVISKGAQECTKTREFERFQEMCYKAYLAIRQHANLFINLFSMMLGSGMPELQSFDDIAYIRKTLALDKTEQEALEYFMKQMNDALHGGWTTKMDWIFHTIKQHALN
T5 sequence (Q8IWQ3 whole entry): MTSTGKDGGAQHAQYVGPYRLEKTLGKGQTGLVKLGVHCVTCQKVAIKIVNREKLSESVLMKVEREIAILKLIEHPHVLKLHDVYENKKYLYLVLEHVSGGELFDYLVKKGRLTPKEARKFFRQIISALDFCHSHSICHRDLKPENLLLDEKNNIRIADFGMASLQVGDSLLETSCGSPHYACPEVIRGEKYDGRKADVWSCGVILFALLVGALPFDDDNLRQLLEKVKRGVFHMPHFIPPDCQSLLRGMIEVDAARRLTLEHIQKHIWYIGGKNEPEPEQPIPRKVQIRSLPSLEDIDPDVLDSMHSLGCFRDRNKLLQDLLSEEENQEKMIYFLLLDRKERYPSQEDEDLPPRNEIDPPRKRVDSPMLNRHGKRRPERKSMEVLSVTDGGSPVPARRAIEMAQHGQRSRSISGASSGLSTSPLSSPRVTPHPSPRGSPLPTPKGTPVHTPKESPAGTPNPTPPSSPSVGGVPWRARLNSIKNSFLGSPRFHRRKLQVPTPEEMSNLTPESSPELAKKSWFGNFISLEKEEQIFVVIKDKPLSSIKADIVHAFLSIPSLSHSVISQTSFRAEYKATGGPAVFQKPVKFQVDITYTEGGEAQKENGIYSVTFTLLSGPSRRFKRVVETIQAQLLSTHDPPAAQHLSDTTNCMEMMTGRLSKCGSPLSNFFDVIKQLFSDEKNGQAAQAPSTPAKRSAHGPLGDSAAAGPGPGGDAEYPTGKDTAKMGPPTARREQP

`Cc1cccc(-c2cnc3occ(-c4ccc(C(=O)O)c(C5CCCC5)c4)c3c2)c1` [SGC-CAMKK2-1 (YL-36)]: the remaining binding at 1 µM in assay [1] was found to be 100%; in assay [2] it was 81%; in assay [3], 100%; in assay [4], 54%; in assay [5], 100%; in assay [6], 97%. Besides, the remaining binding at 1 µM in [7] stood at 100%; in assay [8], 100%; in assay [9] it was 100%; in assay [10], 96%; in [11], 82%; in [12] it was 100%. For the same compound, the remaining binding at 1 µM in assay [13] is 98%; in [14], 100%; in assay [15] it was 100%; in assay [16], 86%; in assay [17] it was 75%; in assay [18] it was 100%. Further, the remaining binding at 1 µM in assay [19] and in assay [20] was 100% throughout.

`O=C(O)c1ccc(-c2coc3ncc(-c4ccccc4)cc23)cc1Cl` [SGC-CAMKK2-1N (UNC-YL-83)]: the remaining binding at 1 µM in assay [21] stood at 100%; in assay [22] it was 84%; in assay [23], 53%; in assay [25], 72%; in [26], 100%; in assay [27] it was 66%. Further, the remaining binding at 1 µM in assay [28] came out at 70%; in assay [29], 65%; in assay [30], 77%; in assay [31], 87%. Besides, the “Percent Control” value in [24] was found to be 100%.

The values above are taken from paper PMC9856672, “SGC-CAMKK2-1: A Chemical Probe for CAMKK2” (Cells, 2023).
